Experimental findings from US20170231949A1, “CELL REPAIR AGENT AND DISINFECTION SYSTEM” (priority 2014, published 2017) are described below.

Common to all, as to format: cell-based
Test [1] relates to mouse fibroblasts in growth phase. The experiment in a line: Tests 4, 6, 7, 8: post-treatment after acidic electrolyzed water, degree of cell proliferation by MTT method. Particulars: 24 hours culture. On the procedure:
(§1) Similarly to Test 1, mouse fibroblasts in growth phase were treated with four-fold-diluted acidic electrolyzed water and undiluted acidic electrolyzed water for 30 seconds. After washing with phosphate-buffered saline, 100 μl of 140 mM DMSO or 1 mg/ml proanthocyanidin prepared with serum-free DMEM was added to each well, and then cells were cultured for 30 minutes under conditions of 37° C. and 5% CO2. After washing with PBS, fresh medium was added, and then the degree of cell proliferation after 24 hours of culture under conditions of 37° C. and 5% CO2 was determined by the MTT method. In addition, a significant difference between groups was tested by Tukey-Krammer's multiple comparison test (multiple comparative analysis).
as §1, with “4,” for “1,”, “PBS,” for “phosphate-buffered saline,”, “of” for “of 140 mM DMSO or”, “(+)-catechin (Tokyo Chemical Industry Co., Ltd.)” for “proanthocyanidin”, “followed by” for “and then cells were cultured for”, “minutes of culture” for “minutes”
Similarly to Test 4, mouse fibroblasts in growth phase were treated with undiluted acidic electrolyzed water for 30 seconds. After washing with PBS, 100 μl of 1 mg/ml chlorogenic acid (Sigma-Aldrich), caffeic acid (Tokyo Chemical Industry Co., Ltd.) or gallic acid (Tokyo Chemical Industry Co., Ltd.) prepared with serum-free DMEM was added to each well, followed by 5 or 30 minutes of culture under conditions of 37° C. and 5% CO2. After washing with PBS, fresh medium was added, and then the degree of cell proliferation after 24 hours of culture under conditions of 37° C., 5% CO2 was determined by the MTT method. In addition, a significant difference between groups was tested by Tukey-Krammer's multiple comparison test (multiple comparative analysis).
Similarly to Test 4, mouse fibroblasts in growth phase were treated with undiluted acidic electrolyzed water for 30 seconds. After washing with PBS, 100 μl of 1 mg/ml proanthocyanidin prepared with serum-free DMEM was added to each well, and the resultants were each left to sit at room temperature for 1 minute and 5 minutes. After washing with PBS, fresh medium was added, and then the degree of cell proliferation after 24 hours of culture under conditions of 37° C. and 5% CO2 was determined by the MTT method. In addition, a significant difference between groups was tested by Tukey-Krammer's multiple comparison test (multiple comparative analysis).

Test [2] relates to human gingival fibroblasts in growth phase. Briefly: Test 5: post-treatment after acidic electrolyzed water, degree of cell proliferation by MTT method. Particulars: four-fold-diluted or undiluted AEW 30 seconds, then 140 mM DMSO or 1 mg/ml proanthocyanidin for 30 minutes; 24 hours culture. On the procedure:
A test similar to Test 4 was conducted for human gingival fibroblasts in growth phase. First, human gingival fibroblasts (purchased from Primary Cell Co., Ltd.) were cultured in a 25 cm^2 flask under conditions of 37° C. and 5% CO2, and then a cell suspension was prepared similarly to the case of mouse fibroblasts in medium to a cell density of 2×10^4 cells/ml. 100 μl each of the cell suspension was seeded to each well of a 96-well microplate.

The test system of test [3] is mouse fibroblasts in stationary phase. Briefly: Test 3: impact of DMSO and proanthocyanidin on intracellular ROS levels increased by acidic electrolyzed water. Conditions: four-fold-diluted or undiluted AEW 30 seconds, then 140 mM DMSO or 1 mg/ml proanthocyanidin, 1 hour. How it is done: Specifically, 100 μl of 1 mM 2',7'-dichlorodihydrofluorescin Diacetate (DCFH-DA) dissolved in serum-free medium (DMEM only) was added to each well, and then cells were cultured for 1 hour under conditions of 37° C. and 5% CO2. After culture, washing with phosphate-buffered saline was performed, 100 μl of 2× Cell Lysis Buffer (Cell Biolabs) and 100 μl of serum-free DMEM were added, and then the resultants were left to stand for 5 minutes. 150 μl of the resultants was transferred from each well to a black 96-well microplate, fluorescence intensities were measured at an excitation wavelength of 450 nm and a fluorescence wavelength of 530 nm using a microplate reader (“FilterMaxTM F5 Multi-Mode Microplate Reader”, Molecular Devices). A standard curve was prepared using 2',7'-dichlorodihydrofluorescein (DCF), and intracellular ROS levels were represented by DCF equivalents (nM). In addition, a significant difference to the average value of each control group (control) was tested by Dunnett's multiple comparison test (multiple comparative analysis). Similarly to Test 2, mouse fibroblasts in stationary phase were treated with four-fold-diluted acidic electrolyzed water and undiluted acidic electrolyzed water for 30 seconds. […] After culture, similarly to Test 2, intracellular ROS levels were determined.

Setting [4] is: undiluted AEW 30 seconds, then 1 mg/ml test substance for 5 or 30 minutes.

On to `Oc1cc(O)c2c(c1)O[C@H](c1ccc(O)c(O)c1)[C@@H](O)C2` [(+)-catechin], for which the “cell proliferation state (degree of cell proliferation, MTT)” value (“cell proliferation state” below) in test [1] (four-fold-diluted and undiluted AEW 30 seconds, then 1 mg/ml (+)-catechin for 30 minutes) is on record as “significantly improved”.
On to `C[S+](C)[O-]` [DMSO, dimethyl sulfoxide], for which the “cell proliferation state” value in test [2] is listed as “no change”; in test [1] (four-fold-diluted and undiluted AEW 30 seconds, then 140 mM DMSO or 1 mg/ml proanthocyanidin for 30 minutes), “no change”. Also, in test [3], the “ROS level increased by acidic electrolyzed water” value is listed as “significantly decreased”.
Turning to `O=C(O)/C=C/c1ccc(O)c(O)c1` [caffeic acid], the “cell proliferation state” value in test [1] (setting [4]) was “significantly improved”.
Take `O=C(O)c1cc(O)c(O)c(O)c1` [gallic acid]: the “cell proliferation state” value in test [1] (setting [4]) is given as “significantly improved”.
The same measure, in the same setting: next, `O=C(/C=C/c1ccc(O)c(O)c1)O[C@@H]1C[C@](O)(C(=O)O)C[C@@H](O)[C@H]1O` [chlorogenic acid]: “significantly improved”.
